Experimental data: PMC4019636, “Rational Design of Berberine-Based FtsZ Inhibitors with Broad-Spectrum Antibacterial Activity” (PLoS ONE, 2014)
Like-named read-outs stand apart in the source and are kept apart here.

What was measured:
S. aureus FtsZ = biological target: T1, S. aureus FtsZ (Staphylococcus aureus, UniProt P0A031); test: GTPase activity assay; assay type: biochemical; details: for GTPase activity of S. aureus FtsZ: 0.44 in its absence
T1 construct: made in house; host or cells: E. coli BL21(DE3)
T1 sequence (P0A031 1-390): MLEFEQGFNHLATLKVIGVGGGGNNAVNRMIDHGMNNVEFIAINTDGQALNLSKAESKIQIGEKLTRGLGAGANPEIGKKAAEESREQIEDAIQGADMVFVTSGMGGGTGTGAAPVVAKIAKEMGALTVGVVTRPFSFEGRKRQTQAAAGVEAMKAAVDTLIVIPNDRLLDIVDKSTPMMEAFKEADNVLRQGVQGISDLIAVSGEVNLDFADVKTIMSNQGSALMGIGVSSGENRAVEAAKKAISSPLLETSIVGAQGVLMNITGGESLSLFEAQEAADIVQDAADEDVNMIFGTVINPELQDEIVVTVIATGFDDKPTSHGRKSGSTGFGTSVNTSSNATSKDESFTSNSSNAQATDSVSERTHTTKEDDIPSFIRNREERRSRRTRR
Description: E. coli BL21(DE3) cells were transformed with the pRSET-A-S vector carrying S. aureus FtsZ with a 6-histidine tag attached at its N-terminus under the control of a T7 promoter. […] When the OD600 reached 0.8, protein expression was induced with 0.4 mM isopropyl-β-D-thiogalactopyranoside (IPTG) for 4 h. Cells were harvested by centrifugation at 9000 rpm for 20 min at 4°C. The cell pellet was resuspended in 20 mL of solubilization buffer (50 mM Tris-HCl, 150 mM NaCl, 1 mM PMSF and 1 mM EDTA, pH 7.4) and then lysed with 1 mg/mL of lysozyme. The mixture was incubated for 1 h on ice. The cells were disrupted by sonication and the crude lysate obtained was centrifuged at 13,000 rpm for 1 h at 4°C. The supernatant containing 6-histidine tagged S. aureus FtsZ was collected and loaded onto a nickel charged HiTrap chelating column pre-equilibrated with starting buffer (20 mM sodium phosphate buffer, 0.5 M NaCl, pH 7.4). The column was then washed with 8 column volumes of the starting buffer to remove the unbound proteins, and the histidine-tagged enzyme was eluted by a linear gradient of 0−0.2 M imidazole. Fractions containing S. aureus FtsZ were pooled, buffer-exchanged with 20 mM NH4HCO3 (pH 8.0) at 4°C, lyophilized, and stored at −20°C. A stock solution of S. aureus FtsZ for the subsequent bioassay was prepared from the lyophilized powder.
The GTPase activity of recombinant S. aureus FtsZ was measured in 96-well microplates using a CytoPhos phosphate assay Biochem Kit (Cytoskeleton, USA) according to an optimized protocol and the manufacturer’s instructions. S. aureus FtsZ (3.5 µM) was preincubated with vehicle (1% DMSO) or different concentrations of each test compound in 50 mM 4-morpholinepropanesulfonic acid buffer (MOPS, pH 6.5) for 10 min at 25°C. Then 5 mM of MgCl2 and 200 mM of KCl were added. Reactions were started with the addition of 500 µM GTP and incubated at 37°C. After 30 min, the reactions were quenched by adding 100 µL of Cytophos reagent for 10 min. Inorganic phosphate was quantified by measuring the absorbance at 650 nm with a microplate reader (Bio-Rad laboratory Ltd., UK). The relative IC50 values were determined by nonlinear regression using a sigmoidal concentration-response curve in the Origin software v6. For the rate of GTPase activity of S. aureus FtsZ, different concentrations of fresh prepared FtsZ (3, 6, 9, 12, 15 µM) was preincubated with vehicle (1% DMSO) or 25 µM, 50 µM compound 2, following the same condition. The data were plotted via Origin software v6. Three independent assays were performed for all the tests.

[1] = tested on: Gram-negative strains E. coli and K. pneumoniae (expressing AmpC β-lactamase); test: Antimicrobial susceptibility assay, summary over Gram-negative strains; assay type: cell-based; details: Escherichia coli, read-out: MIC values
From the text: (§1) The bacterial strains S. aureus ATCC 29213, S. aureus ATCC 29247, S. aureus ATCC BAA-41, E. faecium ATCC 49624, E. faecium ATCC 700221, E. faecalis ATCC 29212, S. epidermidis ATCC 12228, E. coli ATCC 25922, and K. pneumoniae ATCC BAA-1144 used in the antimicrobial susceptibility assays were purchased from American Type Culture Collection (ATCC, USA). B. subtilis strain 168 was already available in our in-house collection. E. coli JM109 WM647 was kindly provided by Dr. W. Margolin (University of Texas-Houston Medical School). FM 4–64 was purchased from Invitrogen (Eugene, Oregon). All other chemicals and reagents were purchased from Sigma-Aldrich. Stock solutions were prepared in DMSO. The final percentage of DMSO in the assays was 1% (v/v) for all experiments.
(§2) Antimicrobial susceptibility tests were conducted in 96-well microplates using the broth microdilution procedure described in the Clinical and Laboratory Standards Institute (CLSI) guidelines. Cation-adjusted Mueller Hinton broth for S. aureus strain ATCC 29213, methicillin-resistant S. aureus strain ATCC BAA-41 and ampicillin-resistant S. aureus strain ATCC 29247, or brain heart infusion broth for antibiotic-susceptible E. faecium strain ATCC 49624 and vancomycin-resistant E. faecium strain ATCC 700221, or Mueller Hinton broth for antibiotic-susceptible strains B. subtilis strain 168, E. faecalis strain ATCC 29212 and E. coli strain ATCC 25922 were used in the assays. After incubation for 18 h at 37°C, the absorbance at 600 nm (A600) was recorded using a microplate reader (Bio-Rad laboratory Ltd., UK) and the percentage of bacterial cell inhibition with respect to vehicles (1% DMSO) was calculated. The MIC was defined as the lowest compound concentration at which the growth of bacteria was inhibited by ≥90%. Three independent assays were performed for each test.

[2] = tested on: antibiotic-susceptible and antibiotic-resistant S. aureus strains; test: Antimicrobial susceptibility assay, summary over S. aureus strains; assay type: cell-based; details: Staphylococcus aureus
From the text: as §1, §2

[3] = FtsZ 3.5 µM, 500 µM GTP, 30 min at 37°C, MOPS pH 6.5, read-out: IC50±SEM, S. aureus FtsZ GTPase activity (relative IC50)
[4] = Gram-negative strains E. coli and K. pneumoniae

Compound | IC50 (S. aureus FtsZ) | MIC [1] | MIC [2] | IC50 (S. aureus FtsZ; [3]) | MIC [1, 4] | GTPase activity of S. aureus FtsZ (S. aureus FtsZ; in the presence of 25 µM compound) | GTPase activity of S. aureus FtsZ (S. aureus FtsZ; in the presence of 50 µM compound)
COc1ccc2cc3[n+](cc2c1OC)CCc1cc2c(cc1-3)OCO2 [Berberine, Berberine chloride] | 272 ± 46.6 µM | > 500 µg/mL | 128 to 196 µg/mL | – | – | – | –
COc1ccc2cc3[n+](cc2c1OCCCOc1ccccc1)CCc1cc2c(cc1-3)OCO2 [Compound 1] | – | – | 2 to 8 µg/mL | 56.8 ± 10.4 µM | 32 to 128 µg/mL | – | –
COc1ccc2cc3[n+](cc2c1OCCCOc1ccc(Cl)cc1)CCc1cc2c(cc1-3)OCO2 [Compound 2] | – | – | 2 to 8 µg/mL | 37.8 ± 3.8 µM | 32 to 128 µg/mL | 0.24 GTP/FtsZ/min | 0.1 GTP/FtsZ/min
COc1ccc(OCCCOc2c(OC)ccc3cc4[n+](cc23)CCc2cc3c(cc2-4)OCO3)cc1 [Compound 3] | – | – | 2 to 8 µg/mL | 47.3 ± 4.6 µM | 32 to 128 µg/mL | – | –
COc1ccc2cc3[n+](cc2c1OCCCOc1ccccc1C)CCc1cc2c(cc1-3)OCO2 [Compound 4] | – | – | 2 to 8 µg/mL | 63.7 ± 4.8 µM | 32 to 128 µg/mL | – | –
COc1ccc2cc3[n+](cc2c1OCCCOc1ccc([N+](=O)[O-])cc1)CCc1cc2c(cc1-3)OCO2 [Compound 5] | – | – | 2 to 8 µg/mL | 43.4 ± 5.2 µM | 32 to 128 µg/mL | – | –
COc1ccc2cc3[n+](cc2c1OCCCCOc1ccccc1)CCc1cc2c(cc1-3)OCO2 [Compound 6] | – | – | 2 to 8 µg/mL | 63.5 ± 4.7 µM | 32 to 128 µg/mL | – | –
